Experimental data reported in PubChem BioAssay AID179 (DTP/NCI, 2004).
Several values for one entry are separate records, joined by “and”; a condition that tells them apart may be missing. Equal values may be shown once. Activity calls are given as the source filed them.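 How the source made its calls: active means compounds giving half or more protection of infected cells from virus-caused growth loss, again on retest; inactive means the rest.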

Tested on: CEM cells HIV-1 protection, formazan growth assay
Experiment: NCI AIDS Antiviral Assay
Details: for IC50: measured here: growth of uninfected CEM cells
Procedure, shortened: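 Protection of CEM cells against HIV-1 was scored from cell growth (soluble formazan) across five concentrations, with parallel uninfected cells. Lack of protection may reflect toxicity.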

Compound | EC50 [µM] | IC50 | outcome
COc1ccc(CN2CC(C)N(N=Cc3c4c(O)c5c(O)c(C)c6c(c5c3O)C(=O)C(C)(O/C=C/C(OC)C(C)C(OC(C)=O)C(C)C(O)C(C)C(O)C(C)/C=C/C=C(\C)C(=O)N4)O6)C(C)C2)cc1 (centres undefined) | > 200 | 9.12 µM | –
CCC(C)OC(=O)/C(Br)=C1/OC(=O)c2ccccc2-c2ccccc21 (centres undefined) | > 200 | 47.9 µM | –
CNc1nc(=O)c(C#N)c(-c2ccc(C)cc2)s1 | 166 | > 200 µM | –
COc1cc(N=Nc2ccccc2C(=O)O)cc(/C=N/NC(=O)c2cccnc2)c1O | > 12.3 | > 12.3 µM | –
C=C1C(=O)O[C@H]2C1C[C@@H](O)[C@@]1(C)OC1CC[C@@]1(C)O[C@H]21 (some centres undefined) | > 200 | 4.47 µM | –
COc1ccc(P2(=S)OC(C)(C)C(C)(C)O2)cc1 | > 200 | > 200 µM | –
COc1ccc(C2C(Cl)C(=O)N2NC(=O)c2ccc(N)cc2)cc1OC (centres undefined) | > 200 | 8.51 µM | –
CCN(CC)CC(C)C(O)(c1ccc(Cl)cc1)C1CCCCC1 (centres undefined) | > 200 | 13.2 µM | –
COc1ccccc1Cn1[nH]c(=O)c2cc([N+](=O)[O-])ccc21 | > 200 | 63.1 µM | –
S=C(Nc1ccccc1)N(/N=C/C=C/c1ccccc1)c1nnc(-c2ccccc2)c(-c2ccccc2)n1 | > 70.8 | 43.7 µM | –
O=C(CC1(O)C(=O)N(CN2CCCCC2)c2ccccc21)c1ccccc1 (centres undefined) | > 200 | 97.7 µM | –
CCCCc1c2c(nc3c1CCC/C3=C\c1ccccc1)C(=O)C(CN(C)C)CC2 (centres undefined) | > 9.33 | > 9.33 µM | –
COc1ccc(C2SCC(=O)N2N=C2NC(=O)CC(=O)N2)cc1 (centres undefined) | > 200 | > 200 µM | –
CCOC(=O)NN(C(=O)OCC)C(C(=O)c1ccccc1)N(NC(=O)OCC)C(=O)OCC | > 200 | > 200 µM | –
N=C(N)CCNC(=O)C1CCC(N)=N1 (centres undefined) | > 851 | 17 µM | –
O=NN1CCCS1(=O)=O | > 200 | > 200 µM | –
NC1C(O)C(O)C(O)C(O)C1O (centres undefined) | > 7240 | > 7240 µM | –
COc1c(O)cc2c(c1O)C1O[C@H](CO)C(O)[C@H](O)[C@H]1OC2=O (some centres undefined) | > 200 | > 200 µM | –
CC(C)(C)C(=O)[O-].N.N.N.N.N.[Co+3].[O-][Cl+3]([O-])([O-])[O-] | – | – | inactive
NC(=O)CN1CCN(CCCN2c3ccccc3Sc3ccc(Cl)cc32)CC1 | > 200 | 30.9 µM | –
COCCOCCOCCC(=O)NC1CC2CCC1(C)C2(C)C (centres undefined) | > 200 | > 200 µM | –
CN(C)c1ccc2c(c1)C(=O)N(OS(=O)(=O)c1ccccc1)C2=O | – | – | inactive

Compound | EC50 [µM] | IC50 | outcome
CCCCCn1cnc2c1S(=O)(=O)N(C)C(NC(=O)c1ccccc1)=N2 | > 200 | > 200 µM | –
O=c1cc(NNc2cccc(Cl)c2)[nH]c(=O)[nH]1 | > 200 | 1.05 µM | –
Cc1oc2c(c1C(=O)c1ccccc1)C(=O)c1ccccc1C2=O | > 58.9 | 11.7 µM | –
CC1OC(OC2C(O)COC(OC3C(C)OC(OC4C(OC(=O)[C@]56CCC(C)(C)C[C@@H]5C5=CCC7[C@@]8(C)C[C@H](O)[C@H](OC9OC(CO)C(O)C(O)C9O)[C@@](C)(CO)[C@@H]8CC[C@@]7(C)[C@]5(C)CC6)OCC(O)C4O)C(O)C3O)C2O)C(O)C(O)C1O (some centres undefined) | > 100 | 29.5 µM | –
CCOP(=O)(O)C(Nc1ccc(N=Nc2ccccc2)cc1)c1cccc(C(Nc2ccc(N=Nc3ccccc3)cc2)P(=O)(O)OCC)c1 (centres undefined) | > 200 | 35.5 µM | –
CCCCCCCCCCCCCCCCOC1OC(CCSSC2OC(OCCCCCCCCCCCCCCCC)C(O)C(O)C2O)C(O)C(O)C1O (centres undefined) | > 3.24 | > 3.24 µM | –
C=C1C(OC(=O)CC(c2ccccc2)N(C)C)C[C@H](OC(C)=O)[C@]2(C)C1C[C@@H]1CC(OC(C)=O)C(C)=C([C@@H](OC(C)=O)C2OC(C)=O)C1(C)C (some centres undefined) | – | – | inactive
OCC1C=CC(n2cnc3c(Cl)ncnc32)CC1 (centres undefined) | > 200 | 34.7 µM | –
O=C(O)CSc1n[nH]c(=S)c2nc[nH]c12 | > 537 | > 537 µM | –
C=CCOCn1cnc2c(N)ncnc21 | – | – | inactive
COc1cc(-c2nn3c(C)c(-c4ccccc4)nc3s2)cc(OC)c1OC | 178 | > 200 µM | –
C[Si](C)(C)C#CCOC=C1CC1 | – | – | inactive
c1ccc(SC23C4C5C6C4C2C6C53)nc1 (centres undefined) | > 151 | 77.6 µM | –
COc1ccc(/C=C/c2sc3ccccc3[n+]2CCCCI)cc1OC | > 200 | 7.59 µM | –
COC(=O)C1=C(C)N[C@@]2(C)[C@H](C(=O)OC)C[C@H]1C2(C(C)=O)C(C)=O | > 200 | > 200 µM | –
COc1c2c(cc3c1C(=O)Cc1ccc4c(c1CN(C)CC3)OCO4)OCO2 | > 35.5 | > 35.5 µM | –
COCN1CCC2N(COC)CCC3N(COC)CCC1N23 (centres undefined) | – | – | inactive
O=C(CNC1=NCCN1)Nc1ccc(NC(=O)c2ccc(C(=O)Nc3ccc(NC(=O)CNC4=NCCN4)cc3)cc2)cc1 | 24 | > 200 µM | –
C1N2CN3CN1CN(C2)C3 | > 200 | 151 µM | –
CCc1c(O)n(Cc2ccccc2)c(=S)n(Cc2nc3ccccc3[nH]2)c1=O | > 200 | > 200 µM | –
CCOc1ncnc2c1ncn2C1OC(CO)CC1F (centres undefined) | > 178 | > 178 µM | –
CCOC(=O)CNc1c(OCc2ccccc2)c(=O)c1=O | > 200 | > 200 µM | –

Compound | EC50 [µM] | IC50 | outcome
[O-]c1nn(C2OC(CO)C(O)C2O)c2cccc[n+]12 (centres undefined) | > 933 | > 933 µM | –
CCCNC(=S)N=Nc1c(O)[nH]c2ccccc12 | > 200 | > 200 µM | –
Cc1nc(C(N)=S)sc1C(/C=C/c1ccc(Cl)c(Cl)c1)=N/NC(C)(C)C | > 117 | > 117 µM | –
COC(=O)CCC(=O)CC1CC(=O)C2CCCN12 (centres undefined) | – | – | inactive
CCOC(=O)/C(=C\c1cccc(C(F)(F)F)c1)[Se]c1ccccc1 | > 18.2 | > 18.2 µM | –
O=C1CCSc2nc(-c3ccc4c(c3)OCO4)nn21 | > 200 | > 200 µM | –
Cc1cc(NS(=O)(=O)c2ccc(NC(=O)c3ccc4nc5ccccc5c(Nc5ccc(S(=O)(=O)Nc6cc(C)on6)cc5)c4c3)cc2)no1 | 67.6 | > 100 µM | –
COc1cc2c3c(c1OC)C1(C=CC(=O)C=C1)C[C@H]3N(C)CC2 | – | – | inactive
O=C1c2c(O)cccc2C(C(=O)CCCC(=O)C2c3cccc(O)c3C(=O)c3c(O)cccc32)c2cccc(O)c21 | > 4.79 | 0.794 µM | –
Cn1c(=O)cn[nH]c1=O | > 200 | > 200 µM | –
CCOC(=O)c1c(O)cc(=O)[nH]c1N1CCOCC1 | > 200 | > 200 µM | –
CCCCCCCCCCCCCCCC(=O)Nc1nc(=O)n(C2CCC(COP(=O)(O)OCC3OC(n4cc(C)c(=O)[nH]c4=O)CC3N=[N+]=[N-])O2)cc1C (centres undefined) | 0.363 | 115 µM | –
CC(=O)Nc1ccc(S(=O)(=O)NN(C)S(=O)(=O)c2ccc(C)cc2)cc1 | > 18.2 | > 18.2 µM | –
S=C(Nc1ccccn1)Nc1ccccn1 | > 200 | 195 µM | –
Cc1ccc2c(c1)[nH]c(=S)n2/C=C1\C(=O)Oc2ccccc2C1=O | > 200 | 36.3 µM | –
O=[N+]([O-])c1ccc(-n2nc3ccc4nonc4c3n2)cc1 | > 200 | > 200 µM | –
CCOP(=O)(Nc1ccc(-c2ccccc2)cc1)OCC | > 200 | 52.5 µM | –
CC(CC12C=CC3(OO1)C(C)(C)CCCC3(C)O2)OC(=O)c1ccccc1 (centres undefined) | > 200 | 7.08 µM and 11.2 µM | –
Cc1csc2n/c(=N/[N+](=O)[O-])sn12 | > 138 | 66.1 µM | –
COc1cc(C(O)c2ccc3c(c2)OCO3)cc(OC)c1OC (centres undefined) | > 200 | 87.1 µM | –
COc1c(Br)cc(/C=C(\C#N)c2cccnc2)cc1Br | > 200 | 25.1 µM | –
c1ccc(N=C2SC(=NC3CCCCC3)N(C3CCCCC3)C2=Nc2ccccc2)cc1 | > 200 | > 200 µM | –

Compound | EC50 [µM] | IC50 | outcome
CC(=O)CCC(=O)CC(O)(C(F)(F)F)C(F)(F)F | > 200 | 33.1 µM | –
CC(=O)N1C=Cc2c(c(C)c3c([nH]c4ccccc43)c2C)C1 | > 200 | 0.158 µM | –
CCOC(=O)c1nc2ccccc2nc1Nc1ccc(OC)c(OC)c1 | > 200 | > 200 µM | –
Cc1ccccc1NC(=O)C1C(=O)N(c2ccccc2C)C(=O)/C1=N\N (centres undefined) | – | – | inactive
CCOC(=O)C/C(C)=N\NC(=O)c1ccncc1 | > 200 | > 200 µM | –
CCC1OC(=O)C(C)C(OC2CC(C)(O)C(O)C(C)O2)C(C)C(O)C(C)(O)CC(C)C(=O)C(C)C(O)C1C (centres undefined) | > 229 | 21.4 µM | –
Cc1ccc2c(c1)C1(SC(C)C(=O)N1c1ccc(Br)cc1)C(=O)N2 (centres undefined) | > 200 | 6.31 µM | –
CCO/C=N/C1=C(C#N)SC2=N/C(=C\c3ccccc3)C(=O)N21 | > 200 | 77.6 µM | –
O=C1c2ccccc2-c2c1c1ccccc1c(=O)n2Cc1ccco1 | > 11.5 | > 11.5 µM | –
CC(C)(C)C1=NC(S)NC(CCC(=O)Nc2ccccc2[N+](=O)[O-])=C1 (centres undefined) | > 692 | > 692 µM | –
CC(C)C(=O)/C=C/c1ccccc1 | > 200 | 57.5 µM | –
Cc1cc(C)n2c(=O)[nH]nc2c1 | > 200 | 178 µM | –
Clc1ccc(CN2COc3c(ccc4cccnc34)C2)c(Cl)c1 | > 200 | 1.45 µM | –
CC(=Nc1ccc(Cl)c(Cl)c1)c1ccncc1 | – | – | inactive
CC(=O)/C(C=Nc1c(C)n(C)n(C)c1=O)=C(/O)c1ccccc1 | > 200 | 89.1 µM | –
O=C(CCC(=O)c1ccsc1)c1ccsc1 | > 200 | > 200 µM | –
O=c1cc(-c2ccccc2)nc(-n2[nH]c3c(c2=O)CCCC3)[nH]1 | > 50.1 | 1.29 µM | –
N#C/C=C\c1ccc(-c2cc(C(F)(F)F)cc(C(F)(F)F)c2)o1 | > 200 | 46.8 µM | –
Cc1c(C)c(C)c(-n2c(=O)n(C)c(=O)n2-c2cc(C(C)(C)C)cc(C(C)(C)C)c2O)c(C)c1C | > 200 | 13.2 µM | –
CCOC(=O)CN1C(=O)C(=O)N(c2ccc(OC)c3ccccc23)C1=O | > 200 | > 200 µM | –
CSc1nc2c(=S)[nH]c(=S)[nH]c2s1 | > 105 | > 105 µM | –
